Results reported in paper PMC5483439, “The Effect of Pungent and Tingling Compounds from Piper nigrum L. on Background K^+ Currents” (Frontiers in Pharmacology, 2017).

System: mouse trigeminal neurons
Test: Calcium imaging on primary cultured mouse trigeminal neurons
Type: cell-based
Method: Trigeminal ganglia neurons were isolated from Swiss CD-1 mice (Charles River Laboratories, Sulzfeld, Germany). All experiments involving animals were carried out in accordance with the European Union Community Council’s guidelines and approved by the competent state office of the Federal Land of Northrhine Westphalia (file number 87-51.04.2010.A180). At postnatal day 2–5, the mice were sacrificed by decapitation. The brain was removed, and both trigeminal ganglia were excised. The ganglia were washed in PBS+/+ (Invitrogen, Karlsruhe, Germany) and collected in Leibovitz Medium (L15, Invitrogen) on ice. The ganglia were transferred to Dulbecco’s modified essential medium (DMEM) containing 0.025% collagenase (type IA, Sigma–Aldrich). The minced ganglia were incubated for 45 min in a humidified atmosphere (37°C, 95% humidity, 6% CO2) before trituration. The cell suspension was centrifuged at 1000 rpm for 4 min at room temperature and the pellet was resuspended in F-12 medium (Invitrogen; 31331-D-MEM/F-12, GlutaMax^TM) supplemented with 10% fetal bovine serum (FBS^TM; Invitrogen), 200 U/mL penicillin and 200 U/mL streptomycin. The cell suspension (50 μL) was then plated on poly L-lysine (0.01%) coated glass coverslips (30 mm, Sarstedt, Nümbrecht, Germany), placed in cell culture dishes (35 mm) and kept in a humidified atmosphere (37°C, 95% humidity, 6% CO2) for 1 h. Subsequently, F-12 medium (2 mL) supplemented with FBS (10%), 200 U/mL penicillin and 200 U/mL streptomycin was added to each dish. The cells were kept in an incubator (37°C, 95% humidity, 6% CO2) until use. The trigeminal ganglion neurons were incubated with the Ca^2+-sensitive reporter dye Fura-2/AM (Invitrogen, final concentration: 3 μM) 30–45 min before starting the experiment. […] The emitted light (510 nm) was detected with a 12-bit 1376 × 1032-pixel charge-coupled device camera (F-View II, Olympus), and Cell® imaging software (Olympus). The changes in intracellular calcium levels were calculated as the intensity ratio of f340/f380 [(E(510) at 340 nm illumination)/(E(510) at 380 nm illumination)]. […]

O=C(/C=C/C=C/c1ccc2c(c1)OCO2)N1CCCCC1 [1a, piperine]
trigeminal neurons showing a calcium response (100 μM): 68 out of 619
piperine-responsive neurons still responsive in the presence of TRP antagonists (100 μM piperine with capsazepine 5 μM and HC-030031 20 μM, 25 of 37 neurons): 68%
piperine-responsive neurons also capsaicin-responsive (100 μM piperine, 10 μM capsaicin, 35 of 68 neurons): 51%
